Results published in patent US20130142796A1, “TREATMENT FOR ANGIOGENIC DISORDERS” (priority 2011, published 2013).
Entries after “also recorded” stand apart in the source; their conditions may differ.

Legend:
[1] = tested on: patient with active fluid within or under the retina; experiment: Case studies of Patients 1-8: intravitreal injection, lesion activity followed by OCT and fluorescein angiography; assay type: in vivo, human; details: for subretinal fluid: Patient 1, after 21 previous intravitreal injections of either Lucentis or Avastin; for sub-retinal and sub-RPE fluid: Patient 3, after repeated mono-therapy, ranibizumab 11 times or bevacizumab 3 times; for subretinal fluid and cystoid degeneration: despite photodynamic therapy with verteporfin X2, monthly ranibizumab X12, bevacizumab X15
Description: In the following examples, “protocol” treatment means that 0.3 mg of pegaptanib in combination with 0.125 mg of bevacizumab or 0.5 mg of ranibizumab, all in commercially available formulations, were injected intravitreally to a patient, using standard procedures for such injections.
The patient provided written consent following a thorough discussion of relative risks and benefits of the potential use of Macugen® in a combination format with simultaneous administration of intravitreal Avastin®.
Macugen® was first injected intravitreally (0.3 mg in 0.09 cc). Optic nerve perfusion and intraocular pressure were assessed. Upon restoration of adequate perfusion and pressure stabilization, the eye was once again sterilized and a second intravitreal injection of Avastin® (1.25 mg in 0.05 cc) was given. Optic nerve perfusion and intraocular pressure were reassessed, and the patient was scheduled for routine follow-up.

[2] = target: heparin-binding domain (HBD) of VEGF (Homo sapiens, UniProt P15692); details: Lee et al., FEBS Lett. 2008; cited from earlier work
Chain of heparin-binding domain (HBD) of VEGF (P15692 137-191 isoform P15692-4 limits assumed): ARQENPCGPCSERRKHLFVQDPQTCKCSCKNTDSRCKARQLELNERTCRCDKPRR

[3] = Patient 4, drug used in isolation after protocol treatment

bevacizumab
subretinal fluid [1]: chronic subretinal fluid
sub-retinal and sub-RPE fluid [1]: chronic fluid in the sub-retinal and sub-RPE (retinal pigment epithelium) space
fluid [1, 3]: recurrent fluid
fluid ([1]; Patient 6, re-administration of bevacizumab mono-therapy after protocol treatment): recurrent fluid
subretinal fluid and cystoid degeneration ([1]; Patient 7): subretinal fluid (SRF); also recorded: chronic subretinal fluid and cystoid degeneration
fluid and vision ([1]; Patient 7, return to bevacizumab alone after protocol treatment): relapse of fluid and vision loss

pegaptanib
binding affinity [2]: high affinity
fluid [1, 3]: recurrent fluid

verteporfin
subretinal fluid and cystoid degeneration ([1]; Patient 7): chronic subretinal fluid and cystoid degeneration

B1: ranibizumab (antibody, chains of the INN, looked up, V domains shown)
VH: EVQLVESGGGLVQPGGSLRLSCAASGYDFTHYGMNWVRQAPGKGLEWVGWINTYTGEPTYAADFKRRFTFSLDTSKSTAYLQMNSLRAEDTAVYYCAKYPYYYGTSHWYFDVWGQGTLVTVSS
VL: DIQLTQSPSSLSASVGDRVTITCSASQDISNYLNWYQQKPGKAPKVLIYFTSSLHSGVPSRFSGSGSGTDFTLTISSLQPEDFATYYCQQYSTVPWTFGQGTKVEIK
modifications: Fab
subretinal fluid [1]: chronic subretinal fluid
subretinal fluid on OCT ([1]; Patient 2, after 33 consecutive intravitreal ranibizumab treatments): subretinal fluid (SRF); also recorded: chronic residual subretinal fluid
fluorescein angiogram, late frames ([1]; Patient 2, before combination therapy, after 33 intravitreal ranibizumab): leakage from the choroidal neovascular membrane (CNVM)
sub-retinal and sub-RPE fluid [1]: chronic fluid in the sub-retinal and sub-RPE (retinal pigment epithelium) space
cystoid macular edema (CME) ([1]; Patient 4, despite 10 ranibizumab injections): chronic cystoid macular edema (CME)
lesion activity on angiogram and OCT ([1]; Patient 6, after 22 ranibizumab treatments): persistent lesion activity
disease management ([1]; Patient 6, ranibizumab mono-therapy after disease was acutely managed with protocol treatment): could be managed with ranibizumab mono-therapy alone
subretinal fluid and cystoid degeneration ([1]; Patient 7): subretinal fluid (SRF); also recorded: chronic subretinal fluid and cystoid degeneration
